Assay results as given in ChEMBL document CHEMBL3045610, “Pyridoquinolones containing azetidinones: synthesis and their biological evaluation” (2012).
Values after ≈ are worked out from the molar mass of the structure shown.

Assays:
Format in all cases: functional
Escherichia coli = test: Antibacterial activity against Escherichia coli by broth dilution method
Pseudomonas aeruginosa = test: Antibacterial activity against Pseudomonas aeruginosa by broth dilution method
Staphylococcus aureus = test: Antibacterial activity against Staphylococcus aureus by broth dilution method
Aspergillus clavatus = test: Antifungal activity against Aspergillus clavatus by broth dilution method
Streptococcus pyogenes = test: Antibacterial activity against Streptococcus pyogenes by broth dilution method
Aspergillus niger = test: Antifungal activity against Aspergillus niger by broth dilution method
Candida albicans = test: Antifungal activity against Candida albicans by broth dilution method
[1] = tested on: Mycobacterium tuberculosis; test: Antimicrobial activity against Mycobacterium tuberculosis H37Rv by broth dilution method

Compound | MIC (Escherichia coli) | MIC (Pseudomonas aeruginosa) | MIC (Staphylococcus aureus) | MIC (Aspergillus clavatus) | MIC (Streptococcus pyogenes) | MIC (Aspergillus niger) | MIC (Candida albicans) | MIC [1]
Cc1cc(Cl)nc2ccc3c(=O)c(C(=O)NN4C(=O)C(Cl)C4c4ccccc4O)c[nH]c3c12 (configuration not stated) | 100 µg/mL (≈ 207 µM) | 200 µg/mL (≈ 414 µM) | 500 µg/mL (≈ 1030 µM) | 1000 µg/mL (≈ 2070 µM) | 500 µg/mL (≈ 1030 µM) | 1000 µg/mL (≈ 2070 µM) | 500 µg/mL (≈ 1030 µM) | 500 µg/mL (≈ 1030 µM)
CCn1cc(C(=O)O)c(=O)c2cc(F)c(N3CCNCC3)cc21 [NORFLOXACIN] | 10 µg/mL (≈ 31.3 µM) | 10 µg/mL (≈ 31.3 µM) | 10 µg/mL (≈ 31.3 µM) | – | 10 µg/mL (≈ 31.3 µM) | – | – | –
COc1ccc(/C=N/NC(=O)c2c[nH]c3c(ccc4nc(Cl)cc(C)c43)c2=O)cc1 | 250 µg/mL (≈ 594 µM) | 500 µg/mL (≈ 1190 µM) | 500 µg/mL (≈ 1190 µM) | 500 µg/mL (≈ 1190 µM) | 500 µg/mL (≈ 1190 µM) | 500 µg/mL (≈ 1190 µM) | 500 µg/mL (≈ 1190 µM) | –
Cc1cc(Cl)nc2ccc3c(=O)c(C(=O)N/N=C/c4ccccc4)c[nH]c3c12 | 250 µg/mL (≈ 640 µM) | 250 µg/mL (≈ 640 µM) | 200 µg/mL (≈ 512 µM) | > 1000 µg/mL | 250 µg/mL (≈ 640 µM) | > 1000 µg/mL | 250 µg/mL (≈ 640 µM) | –
COc1ccc(C2C(Cl)C(=O)N2NC(=O)c2c[nH]c3c(ccc4nc(Cl)cc(C)c43)c2=O)cc1 (configuration not stated) | 250 µg/mL (≈ 503 µM) | 250 µg/mL (≈ 503 µM) | 500 µg/mL (≈ 1010 µM) | > 1000 µg/mL | 500 µg/mL (≈ 1010 µM) | > 1000 µg/mL | 500 µg/mL (≈ 1010 µM) | –
O=C(O)c1cn(C2CC2)c2cc(N3CCNCC3)c(F)cc2c1=O [CIPROFLOXACIN] | 25 µg/mL (≈ 75.4 µM) | – | 50 µg/mL (≈ 151 µM) | – | 50 µg/mL (≈ 151 µM) | – | – | –
COC1=CC(=O)C[C@@H](C)[C@]12Oc1c(Cl)c(OC)cc(OC)c1C2=O [GRISEOFULVIN] | – | – | – | 100 µg/mL (≈ 283 µM) | – | 100 µg/mL (≈ 283 µM) | 500 µg/mL (≈ 1420 µM) | –
Cc1cc(Cl)nc2ccc3c(=O)c(C(=O)N/N=C/c4ccccc4O)c[nH]c3c12 | 250 µg/mL (≈ 615 µM) | 250 µg/mL (≈ 615 µM) | 100 µg/mL (≈ 246 µM) | 500 µg/mL (≈ 1230 µM) | 200 µg/mL (≈ 492 µM) | 500 µg/mL (≈ 1230 µM) | 100 µg/mL (≈ 246 µM) | 200 µg/mL (≈ 492 µM)
Cc1cc(Cl)nc2ccc3c(=O)c(C(=O)NN)c[nH]c3c12 | 100 µg/mL (≈ 330 µM) | 200 µg/mL (≈ 661 µM) | 250 µg/mL (≈ 826 µM) | > 1000 µg/mL | 200 µg/mL (≈ 661 µM) | > 1000 µg/mL | 500 µg/mL (≈ 1650 µM) | 200 µg/mL (≈ 661 µM)
NYSTATIN | – | – | – | 100 µg/mL | – | 100 µg/mL | 100 µg/mL | –
CCOC(=O)c1c[nH]c2c(ccc3nc(Cl)cc(C)c32)c1=O | 250 µg/mL (≈ 789 µM) | 250 µg/mL (≈ 789 µM) | 150 µg/mL (≈ 474 µM) | 1000 µg/mL (≈ 3160 µM) | 100 µg/mL (≈ 316 µM) | 1000 µg/mL (≈ 3160 µM) | 200 µg/mL (≈ 631 µM) | 500 µg/mL (≈ 1580 µM)
Cc1cc(Cl)nc2ccc3c(=O)c(C(=O)N/N=C/c4ccccc4Cl)c[nH]c3c12 | 500 µg/mL (≈ 1180 µM) | 500 µg/mL (≈ 1180 µM) | 100 µg/mL (≈ 235 µM) | > 1000 µg/mL | 200 µg/mL (≈ 470 µM) | 500 µg/mL (≈ 1180 µM) | 250 µg/mL (≈ 588 µM) | –
Cc1cc(Cl)nc2ccc3c(=O)c(C(=O)N/N=C/c4cc([N+](=O)[O-])ccc4O)c[nH]c3c12 | 62.5 µg/mL (≈ 138 µM) | 100 µg/mL (≈ 221 µM) | 200 µg/mL (≈ 443 µM) | 1000 µg/mL (≈ 2210 µM) | 250 µg/mL (≈ 553 µM) | 1000 µg/mL (≈ 2210 µM) | 200 µg/mL (≈ 443 µM) | 500 µg/mL (≈ 1110 µM)
Cc1ccc(/C=N/NC(=O)c2c[nH]c3c(ccc4nc(Cl)cc(C)c43)c2=O)cc1 | 200 µg/mL (≈ 494 µM) | 250 µg/mL (≈ 618 µM) | 250 µg/mL (≈ 618 µM) | 500 µg/mL (≈ 1240 µM) | 250 µg/mL (≈ 618 µM) | 500 µg/mL (≈ 1240 µM) | 250 µg/mL (≈ 618 µM) | –
Cc1cc(Cl)nc2ccc3c(=O)c(C(=O)NN4C(=O)C(Cl)C4c4ccccc4)c[nH]c3c12 (configuration not stated) | 100 µg/mL (≈ 214 µM) | 250 µg/mL (≈ 535 µM) | 250 µg/mL (≈ 535 µM) | > 1000 µg/mL | 250 µg/mL (≈ 535 µM) | > 1000 µg/mL | 500 µg/mL (≈ 1070 µM) | 250 µg/mL (≈ 535 µM)
Cc1cc(Cl)nc2ccc3c(=O)c(C(=O)NN4C(=O)C(Cl)C4c4cccc([N+](=O)[O-])c4O)c[nH]c3c12 (configuration not stated) | 62.5 µg/mL (≈ 118 µM) | 200 µg/mL (≈ 379 µM) | 500 µg/mL (≈ 946 µM) | > 1000 µg/mL | 500 µg/mL (≈ 946 µM) | > 1000 µg/mL | 500 µg/mL (≈ 946 µM) | 200 µg/mL (≈ 379 µM)
Cc1cc(Cl)nc2ccc3c(=O)c(C(=O)NN4C(=O)C(Cl)C4c4ccccc4Cl)c[nH]c3c12 (configuration not stated) | 200 µg/mL (≈ 399 µM) | 250 µg/mL (≈ 498 µM) | 200 µg/mL (≈ 399 µM) | 250 µg/mL (≈ 498 µM) | 200 µg/mL (≈ 399 µM) | 250 µg/mL (≈ 498 µM) | 100 µg/mL (≈ 199 µM) | –
NNC(=O)c1ccncc1 [ISONIAZID] | – | – | – | – | – | – | – | 0.2 µg/mL (≈ 1.46 µM)
Cc1cc(Cl)nc2ccc3c(=O)c(C(=O)NN4C(=O)C(Cl)C4c4ccc(Cl)cc4)c[nH]c3c12 (configuration not stated) | 100 µg/mL (≈ 199 µM) | 100 µg/mL (≈ 199 µM) | 500 µg/mL (≈ 996 µM) | 500 µg/mL (≈ 996 µM) | 500 µg/mL (≈ 996 µM) | 500 µg/mL (≈ 996 µM) | 200 µg/mL (≈ 399 µM) | 100 µg/mL (≈ 199 µM)
COc1cc(C2C(Cl)C(=O)N2NC(=O)c2c[nH]c3c(ccc4nc(Cl)cc(C)c43)c2=O)ccc1O (configuration not stated) | 250 µg/mL (≈ 487 µM) | 500 µg/mL (≈ 974 µM) | 1000 µg/mL (≈ 1950 µM) | 500 µg/mL (≈ 974 µM) | 1000 µg/mL (≈ 1950 µM) | 500 µg/mL (≈ 974 µM) | 1000 µg/mL (≈ 1950 µM) | –
Cc1cc(Cl)nc2ccc3c(=O)c(C(=O)N/N=C/c4cccc([N+](=O)[O-])c4O)c[nH]c3c12 | 150 µg/mL (≈ 332 µM) | 200 µg/mL (≈ 443 µM) | 500 µg/mL (≈ 1110 µM) | 500 µg/mL (≈ 1110 µM) | 500 µg/mL (≈ 1110 µM) | 500 µg/mL (≈ 1110 µM) | 200 µg/mL (≈ 443 µM) | 62.5 µg/mL (≈ 138 µM)
CC1(C)S[C@@H]2[C@H](NC(=O)[C@H](N)c3ccccc3)C(=O)N2[C@H]1C(=O)O [AMPICILLIN] | 100 µg/mL (≈ 286 µM) | 100 µg/mL (≈ 286 µM) | 250 µg/mL (≈ 715 µM) | – | 100 µg/mL (≈ 286 µM) | – | – | –
COc1cc(/C=N/NC(=O)c2c[nH]c3c(ccc4nc(Cl)cc(C)c43)c2=O)ccc1O | 500 µg/mL (≈ 1140 µM) | 500 µg/mL (≈ 1140 µM) | 100 µg/mL (≈ 229 µM) | 1000 µg/mL (≈ 2290 µM) | 200 µg/mL (≈ 458 µM) | 1000 µg/mL (≈ 2290 µM) | 250 µg/mL (≈ 572 µM) | 500 µg/mL (≈ 1140 µM)
Cc1cc(Cl)nc2ccc3c(=O)c(C(=O)N/N=C/c4ccc(Cl)cc4)c[nH]c3c12 | 500 µg/mL (≈ 1180 µM) | 1000 µg/mL (≈ 2350 µM) | 250 µg/mL (≈ 588 µM) | 250 µg/mL (≈ 588 µM) | 250 µg/mL (≈ 588 µM) | 250 µg/mL (≈ 588 µM) | 500 µg/mL (≈ 1180 µM) | –
O=C(N[C@H](CO)[C@H](O)c1ccc([N+](=O)[O-])cc1)C(Cl)Cl [CHLORAMPHENICOL] | 50 µg/mL (≈ 155 µM) | 50 µg/mL (≈ 155 µM) | 50 µg/mL (≈ 155 µM) | – | 50 µg/mL (≈ 155 µM) | – | – | –
COc1ccccc1/C=N/NC(=O)c1c[nH]c2c(ccc3nc(Cl)cc(C)c32)c1=O | 100 µg/mL (≈ 238 µM) | 250 µg/mL (≈ 594 µM) | 250 µg/mL (≈ 594 µM) | 1000 µg/mL (≈ 2380 µM) | 250 µg/mL (≈ 594 µM) | 1000 µg/mL (≈ 2380 µM) | 500 µg/mL (≈ 1190 µM) | 250 µg/mL (≈ 594 µM)
COc1ccccc1C1C(Cl)C(=O)N1NC(=O)c1c[nH]c2c(ccc3nc(Cl)cc(C)c32)c1=O (configuration not stated) | 500 µg/mL (≈ 1010 µM) | 1000 µg/mL (≈ 2010 µM) | 250 µg/mL (≈ 503 µM) | > 1000 µg/mL | 500 µg/mL (≈ 1010 µM) | > 1000 µg/mL | 250 µg/mL (≈ 503 µM) | –
Cc1cc(Cl)nc2ccc3c(=O)c(C(=O)NN4C(=O)C(Cl)C4c4cc([N+](=O)[O-])ccc4O)c[nH]c3c12 (configuration not stated) | 250 µg/mL (≈ 473 µM) | 500 µg/mL (≈ 946 µM) | 500 µg/mL (≈ 946 µM) | 500 µg/mL (≈ 946 µM) | 500 µg/mL (≈ 946 µM) | 500 µg/mL (≈ 946 µM) | 250 µg/mL (≈ 473 µM) | –
Cc1ccc(C2C(Cl)C(=O)N2NC(=O)c2c[nH]c3c(ccc4nc(Cl)cc(C)c43)c2=O)cc1 (configuration not stated) | 250 µg/mL (≈ 519 µM) | 250 µg/mL (≈ 519 µM) | 250 µg/mL (≈ 519 µM) | > 1000 µg/mL | 250 µg/mL (≈ 519 µM) | > 1000 µg/mL | 200 µg/mL (≈ 416 µM) | –
